Experimental data: US20240239752A1, “BICYCLIC HETEROAROMATIC INHIBITORS OF KLK5” (BioCryst Pharmaceuticals, Inc., priority 2021, published 2024)

What follows are compounds tested against T1, recombinant human KLK5 (Homo sapiens, UniProt Q9Y337) (assay: Kallikrein (KLK) 5 enzymatic assay (Boc-VPR-AMC fluorogenic substrate)). Details: recombinant human KLK5 0.1 μg/well, Boc-VPR-AMC 100 μM, pH 7.5, room temperature, 1% DMSO; tested a minimum of three times.
T1 construct: purchased Novoprotein or R&D Systems C415 or 1108-SE
T1 sequence (Q9Y337 23-293): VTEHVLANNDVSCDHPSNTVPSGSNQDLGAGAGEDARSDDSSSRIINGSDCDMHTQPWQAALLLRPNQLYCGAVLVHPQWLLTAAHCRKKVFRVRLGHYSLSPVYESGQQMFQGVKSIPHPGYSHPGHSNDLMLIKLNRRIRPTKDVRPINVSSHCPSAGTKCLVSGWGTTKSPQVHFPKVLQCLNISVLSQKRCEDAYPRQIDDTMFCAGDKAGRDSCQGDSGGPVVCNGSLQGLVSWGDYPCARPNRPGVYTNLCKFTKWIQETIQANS
Assay type: biochemical
Summary of the method: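 Fluorogenic rate assay at pH 7.5 (0.1 M NaH2PO4, 1% DMSO, room temperature), run at least three times per compound. Compound was premixed with 0.1 μg/well recombinant human KLK5 before adding 100 μM Boc-VPR-AMC; AMC release was read at ex 380/em 460 nm, and IC50 derived from inhibition of rate vs DMSO control.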

SMILES | IC50 [nM]
COc1cccc(CC(=O)O)c1OCc1coc2c(OC)cc(-c3ccc4ccnc(N)c4c3)cc12 [Compound 267g, 2-(2-((5-(1-aminoisoquinolin-7-yl)-7-methoxybenzofuran-3-yl)methoxy)-3-methoxyphenyl)acetic acid] | > 10000
N=C(N)c1cccc(-c2cc3c(COc4ccccc4C(O)C(=O)O)cccc3o2)c1 (stereo not shown) [Compound 268d, 2-(2-((2-(3-carbamimidoylphenyl)benzofuran-4-yl)methoxy)phenyl)-2-hydroxyacetic acid] | 1000 to 10000
COc1cc2nn(C3CCC3)c(COc3ccccc3CC(=O)O)c2cc1-c1cccc2c(N)nccc12 [Compound 270b, 2-(2-((5-(1-aminoisoquinolin-5-yl)-2-cyclobutyl-6-methoxy-2H-indazol-3-yl)methoxy)phenyl)acetic acid] | > 10000
COc1cc2nn(C3CCC3)c(COc3ccccc3CC(=O)O)c2cc1-c1cccc(C(=N)N)c1 [Compound 271c, 2-(2-((5-(3-carbamimidoylphenyl)-2-cyclobutyl-6-methoxy-2H-indazol-3-yl)methoxy)phenyl)acetic acid] | 1000 to 10000
CC(C)Oc1c(C(=N)N)cccc1-c1ccc2c(c1)c(COc1ccccc1CC(=O)O)nn2C(C)C [Compound 272f, 2-(2-((5-(3-carbamimidoyl-2-isopropoxyphenyl)-1-isopropyl-1H-indazol-3-yl)methoxy)phenyl)acetic acid] | 1000 to 10000
Nc1nccc2c(-c3ccc4c(c3)c(Cn3ccc5cccc(C(=O)O)c53)nn4C3CCOC3)cccc12 (stereo not shown) [Compound 274e, 1-((5-(1-aminoisoquinolin-5-yl)-1-(tetrahydrofuran-3-yl)-1H-indazol-3-yl)methyl)-1H-indole-7-carboxylic acid] | 1000 to 10000
Nc1nccc2ccc(-c3ccc4c(c3)c(Cn3ccc5cccc(C(=O)O)c53)nn4C3CCOC3)cc12 (stereo not shown) [Compound 275b, 1-((5-(1-aminoisoquinolin-7-yl)-1-(tetrahydrofuran-3-yl)-1H-indazol-3-yl)methyl)-1H-indole-7-carboxylic acid] | > 10000
Cc1cccc(OCc2nn(C3CCC(F)(F)C3)c3ccc(-c4ccc5ccnc(N)c5c4)cc23)c1CC(=O)O (stereo not shown) [Compound 277b, 2-(2-((5-(1-aminoisoquinolin-7-yl)-1-(3,3-difluorocyclopentyl)-1H-indazol-3-yl)methoxy)-6-methylphenyl)acetic acid] | < 1000
CC(C)(C)OC(=O)NCc1cc(-c2cccc3c(N)nccc23)cc2c(COc3ccccc3CC(=O)O)nn(C3CCCCO3)c12 (stereo not shown) [Compound 278c, 2-(2-((5-(1-aminoisoquinolin-5-yl)-7-(((tert-butoxycarbonyl)amino)methyl)-1-(tetrahydro-2H-pyran-2-yl)-1H-indazol-3-yl)methoxy)phenyl)acetic acid] | 1000 to 10000
Nc1nccc2c(-c3cnc4c(c3)c(COc3ccccc3CC(=O)O)cn4C3CCOC3)cccc12 (stereo not shown) [Compound 279g, 2-(2-((5-(1-aminoisoquinolin-5-yl)-1-(tetrahydrofuran-3-yl)-1H-pyrrolo[2,3-b]pyridin-3-yl)methoxy)phenyl)acetic acid] | < 1000
NCc1cc(-c2cccc3c(N)nccc23)cc2c(COc3ccccc3CC(=O)O)n[nH]c12 [Compound 280a, 2-(2-((5-(1-aminoisoquinolin-5-yl)-7-(aminomethyl)-1H-indazol-3-yl)methoxy)phenyl)acetic acid] | 1000 to 10000
Nc1nccc2ccc(-c3ccc4c(c3)c(COc3ccccc3CC(=O)O)nn4C3CCOCC3)cc12 [Compound 281g, 2-(2-((5-(1-aminoisoquinolin-7-yl)-1-(tetrahydro-2H-pyran-4-yl)-1H-indazol-3-yl)methoxy)phenyl)acetic acid] | < 1000
Nc1nccc2c(-c3ccc4c(c3)c(COc3ccccc3CC(=O)O)nn4C3CCOCC3)cccc12 [Compound 282b, 2-(2-((5-(1-aminoisoquinolin-5-yl)-1-(tetrahydro-2H-pyran-4-yl)-1H-indazol-3-yl)methoxy)phenyl)acetic acid] | < 1000
Nc1nccc2ccc(-c3ccc4c(c3)c(COc3ccccc3CC(=O)O)nn4C3CCCOC3)cc12 (stereo not shown) [Compound 283g, 2-(2-((5-(1-aminoisoquinolin-7-yl)-1-(tetrahydro-2H-pyran-3-yl)-1H-indazol-3-yl)methoxy)phenyl)acetic acid] | < 1000
Nc1nccc2c(-c3ccc4c(c3)c(COc3ccccc3CC(=O)O)nn4C3CCCOC3)cccc12 (stereo not shown) [Compound 284b, 2-(2-((5-(1-aminoisoquinolin-5-yl)-1-(tetrahydro-2H-pyran-3-yl)-1H-indazol-3-yl)methoxy)phenyl)acetic acid] | < 1000
Nc1nccc2c(-c3ccc4c(c3)N(Cc3ccccc3CC(=O)O)CC4)cccc12 [Compound 285d, 2-(2-((6-(1-aminoisoquinolin-5-yl)indolin-1-yl)methyl)phenyl)acetic acid] | 1000 to 10000
NC(=O)c1cc(-c2cccc3c(N)nccc23)cc2c(COc3ccccc3CC(=O)O)nn(C3CCCCO3)c12 (stereo not shown) [Compound 286a, 2-(2-((5-(1-aminoisoquinolin-5-yl)-7-carbamoyl-1-(tetrahydro-2H-pyran-2-yl)-1H-indazol-3-yl)methoxy)phenyl)acetic acid] | 1000 to 10000
NCc1cc(-c2cccc3c(N)nccc23)cc2c(COc3ccccc3CC(=O)O)nn(C3CCCCO3)c12 (stereo not shown) [Compound 287a, 2-(2-((5-(1-aminoisoquinolin-5-yl)-7-(aminomethyl)-1-(tetrahydro-2H-pyran-2-yl)-1H-indazol-3-yl)methoxy)phenyl)acetic acid] | 1000 to 10000
Nc1nccc2ccc(-c3ccc4c(c3)c(COc3cccc(OC(F)(F)F)c3CC(=O)O)nn4C3CCOC3)cc12 (stereo not shown) [Compound 288d, 2-(2-((5-(1-aminoisoquinolin-7-yl)-1-(tetrahydrofuran-3-yl)-1H-indazol-3-yl)methoxy)-6-(trifluoromethoxy)phenyl)acetic acid] | < 1000
Nc1nccc2c(-c3ccc4c(c3)c(COc3cccc(OC(F)(F)F)c3CC(=O)O)nn4C3CCOC3)cccc12 (stereo not shown) [Compound 289b, 2-(2-((5-(1-aminoisoquinolin-5-yl)-1-(tetrahydrofuran-3-yl)-1H-indazol-3-yl)methoxy)-6-(trifluoromethoxy)phenyl)acetic acid] | < 1000

Further lines, results first:

IC50 [nM] | SMILES
< 1000 | Cc1cccc(O[C@@H]2CCc3ccc(-c4cccc5c(N)nccc45)cc32)c1CC(=O)O [Compound 259c, (R)-2-(2-((6-(1-aminoisoquinolin-5-yl)-2,3-dihydro-1H-inden-1-yl)oxy)-6-methylphenyl)acetic acid]
< 1000 | Cc1cccc(O[C@@H]2CCc3ccc(-c4ccc5ccnc(N)c5c4)cc32)c1CC(=O)O [Compound 260b, (R)-2-(2-((6-(1-aminoisoquinolin-7-yl)-2,3-dihydro-1H-inden-1-yl)oxy)-6-methylphenyl)acetic acid]
< 1000 | Nc1nccc2c(-c3cc(-c4ccoc4)c4c(c3)C(Oc3ccccc3CC(=O)O)CC4)cccc12 (stereo not shown) [Compound 261b, 2-(2-((6-(1-aminoisoquinolin-5-yl)-4-(furan-3-yl)-2,3-dihydro-1H-inden-1-yl)oxy)phenyl)acetic acid]
< 1000 | CC(C)n1nc(COc2ccccc2CC(=O)O)c2cc(-c3cccc(C(=N)N)c3O)ccc21 [Compound 262e, 2-(2-((5-(3-carbamimidoyl-2-hydroxyphenyl)-1-isopropyl-1H-indazol-3-yl)methoxy)phenyl)acetic acid]
< 1000 | COc1c(C(=N)N)cccc1-c1ccc2c(c1)c(COc1ccccc1CC(=O)O)nn2C1CCCC1 [Compound 263d, 2-(2-((5-(3-carbamimidoyl-2-methoxyphenyl)-1-cyclopentyl-1H-indazol-3-yl)methoxy)phenyl)acetic acid]
< 1000 | COc1c(C(=N)N)cccc1-c1ccc2c(c1)c(COc1ccccc1CC(=O)O)nn2C1CCOC1 (stereo not shown) [Compound 264d, 2-(2-((5-(3-carbamimidoyl-2-methoxyphenyl)-1-(tetrahydrofuran-3-yl)-1H-indazol-3-yl)methoxy)phenyl)acetic acid]
< 1000 | Nc1nccc2c(-c3ccc4c(c3)c(COc3ccccc3CC(=O)O)nn4C3CCC(F)(F)C3)cccc12 (stereo not shown) [Compound 265h, 2-(2-((5-(1-aminoisoquinolin-5-yl)-1-(3,3-difluorocyclopentyl)-1H-indazol-3-yl)methoxy)phenyl)acetic acid]
< 1000 | Nc1nccc2ccc(-c3ccc4c(c3)c(COc3ccccc3CC(=O)O)nn4C3CCC(F)(F)C3)cc12 (stereo not shown) [Compound 266b, 2-(2-((5-(1-aminoisoquinolin-7-yl)-1-(3,3-difluorocyclopentyl)-1H-indazol-3-yl)methoxy)phenyl)acetic acid]
< 1000 | COc1cc2nn(C3CCC3)c(COc3ccccc3CC(=O)O)c2cc1-c1ccc2ccnc(N)c2c1 [Compound 269f, 2-(2-((5-(1-aminoisoquinolin-7-yl)-2-cyclobutyl-6-methoxy-2H-indazol-3-yl)methoxy)phenyl)acetic acid]
< 1000 | CCOc1c(C(=N)N)cccc1-c1ccc2c(c1)c(COc1ccccc1CC(=O)O)nn2C(C)C [Compound 273e, 2-(2-((5-(3-carbamimidoyl-2-ethoxyphenyl)-1-isopropyl-1H-indazol-3-yl)methoxy)phenyl)acetic acid]
< 1000 | Cc1cccc(OCc2nn(C3CCC(F)(F)C3)c3ccc(-c4cccc5c(N)nccc45)cc23)c1CC(=O)O (stereo not shown) [Compound 276c, 2-(2-((5-(1-aminoisoquinolin-5-yl)-1-(3,3-difluorocyclopentyl)-1H-indazol-3-yl)methoxy)-6-methylphenyl)acetic acid]
